Laboratory results as given in ChEMBL document CHEMBL3045315, “Effect of ring A and ring B substitution on the cytotoxic potential of pyrazole tethered chalcones” (Med Chem Res, 2012).
pIC50: −log10 of the molar value.

Legend:
Type in all cases: functional, cell-based
PC-3 = assay: Cytotoxicity against Homo sapiens (human) PC3 cells after 48 hr by SRB assay; settings: PC-3, 48 h
HEp-2 = assay: Cytotoxicity against Homo sapiens (human) Hep2 cells after 48 hr by SRB assay; settings: HEp-2, 48 h
IMR-32 = assay: Cytotoxicity against Homo sapiens (human) IMR32 cells after 48 hr by SRB assay; settings: IMR-32, 48 h
OVCAR = assay: Cytotoxicity against Homo sapiens (human) OVCAR cells after 48 hr by SRB assay

Structure (SMILES) | pIC50 (PC-3) | pIC50 (HEp-2) | pIC50 (IMR-32) | pIC50 (OVCAR)
CC(=O)N1N=C(c2ccc(Br)cc2)CC1c1cccc(Cl)c1Cl (stereo not given) | 4.41 | 4.30 | 4.34 | 4.40
COc1ccc(C2CC(c3ccc4ccccc4c3)=NN2C(C)=O)c(OC)c1OC (stereo not given) | 6.21 | 6.23 | 6.11 | 6.24
CC(=O)N1N=C(c2ccc3ccccc3c2)CC1c1cccc(Cl)c1Cl (stereo not given) | 4.75 | 4.90 | 4.77 | 4.82
COc1ccc(C2CC(c3ccccc3)=NN2C(C)=O)cc1OC (stereo not given) | 5.17 | 5.11 | 5.35 | 5.25
CC(=O)N1N=C(c2cccc3ccccc23)CC1c1ccc2ccccc2c1 (stereo not given) | 6.68 | 6.72 | 6.57 | 6.60
